The record followed here is ChEMBL document CHEMBL1143539, “A fluorimetric assay for the spontaneous release of an N7-alkylguanine residue from duplex DNA” (Bioorg Med Chem Lett, 2005).

What all share (format): ADME
A short description of data set [1]: Half-life by fluorescence method at 25 degrees C.
A short description of data set [2]: Half-life by fluorescence method at 30 degrees C.
Data set [3] can be described thus: Half-life by fluorescence method at 37 degrees C.

Molecules are shown by their SMILES.

With `C[C@H]1NC(=O)CC2([C@@](C)(O)C(=O)O)CC[C@@](C)(n3cnc4nc(N)nc(O)c43)[C@@H](S2)[C@@H](O)C(=O)/C=C/C=C\c2csc1n2`, the results for the half-life in data set [1], in data set [2] and in data set [3] were 11 h, 4.6 h and 2.2 h, respectively.
